Source: article PMC8347481, “Germacranolides from Carpesium divaricatum: Some New Data on Cytotoxic and Anti-Inflammatory Activity” (Molecules, 2021)
Where two headings read alike, the source gives them in different places.

Key:
PC3 = test: LDH cell viability assay, prostate cancer cells; assay type: cell-based; conditions: Homo sapiens, PC-3; PC3, 24 h, LDH assay; read-out: IC50
Experimental: (§1) Normal prostate epithelial cells (PNT2), two prostate cancer cell lines (Du145 and PC3), human keratinocytes (HaCaT), two melanoma cell lines (A375 and HTB140) and two colon cancer cell lines (HT29 and Caco-2) were treated with 3 at a concentration range 1.0–50.0 µg/mL. Viability of the cells was estimated using lactate dehydrogenase (LDH) assay.
(§2) Cytotoxic activity of 3 was tested on human cancer and normal cells, grouped in three panels: prostate, skin and gastrointestinal. The prostate panel comprised prostate cancer cell lines DU145 (ATCC HTB-81) and PC3 (ATCC CRL-1435) and prostate normal epithelial cells PNT2 (ECACC 95012613). Melanoma cell lines A375 (ATCC CRL-1619) and HTB140 (ATCC Hs 294T) together with human keratinocytes HaCaT (obtained as a kind gift of Prof. Marta Michalik, Department of Cell Biology, Jagiellonian University) were included in the skin panel. Two colon cancer cell lines, namely Caco-2 (ATCC HTB-37) and HT29 (ATCC HTB-38), constituted the gastrointestinal panel. Du145 cells were grown in a modified Eagle’s medium with low (1.0 g/L) glucose concentration; HT29, PC3 and PNT-2 cells were grown in Dulbecco’s modified Eagle’s medium (DMEM) and F12 HAM Nutrient Mixture; Caco-2 cells were grown in modified Eagle’s medium with nonessential amino acids (NEAA); and melanoma cells and keratinocytes were maintained in modified Eagle’s medium with high (4.5 g/L) glucose concentration. The culture media contained antibiotics and 10% fetal bovine serum (FBS). All cultures were maintained at 37 °C in a humidified, 5% CO2-containing atmosphere.
(§3) The examined compound (3) was diluted in the culture media from freshly made stock solution in MeOH (10 mg/mL) to the working concentrations (from 0 to 50 μg/mL). Cell viability was determined as described previously. […] Then, the culture medium was replaced with the medium containing different concentrations of the assessed compound (1–50 μg/mL). After 24 h of incubation, the viability of the cells was determined using colorimetric lactate dehydrogenase (LDH) assay in comparison to the controls to which corresponding aliquots of MeOH diluted with culture media were added. Cells grown in the medium without the tested compound were used as control I (negative), and the positive control (control II) was obtained by incubation of the cells in the medium containing 1% Triton X-100. LDH released from the damaged cells into the cell culture medium was quantified by measuring the absorbance at 490 nm using a Synergy II Biotek microplate reader. Cytotoxicities of the examined compounds were calculated as follows: ((absorbance of the tested sample−absorbance of control I)/(absorbance of control II−absorbance of control I)) × 100. Results were means of three independent measurements (± SD). Doxorubicin (Ebewe Pharma G.m.b.H., Unterach, Austria) was used as a reference cytostatic drug.

HaCaT = test: LDH cell viability assay, keratinocytes; assay type: cell-based, human; conditions: Homo sapiens, 24 h, LDH assay, read-out: IC50
Experimental: as §1, §2, §3

A375 = test: LDH cell viability assay, melanoma cells; assay type: cell-based; conditions: Homo sapiens, A-375; A375, 24 h, LDH assay; read-out: IC50
Experimental: as §1, §2, §3

HTB140 = test: LDH cell viability assay, melanoma cells; assay type: cell-based; conditions: Homo sapiens; HTB140, 24 h, LDH assay; read-out: IC50
Experimental: as §1, §2, §3

[1] = system: normal and cancer cell lines (prostate, skin, gastrointestinal panels); test: LDH cytotoxicity, whole panel of normal and cancer cell lines; assay type: cell-based; conditions: Homo sapiens; 24 h treatment, cell density 1.5 × 10^4; doxorubicin: except PC3 cells; read-out: IC50 range over the cell lines
Experimental: Cytotoxic activity of 3 was tested on human cancer and normal cells, grouped in three panels: prostate, skin and gastrointestinal. The prostate panel comprised prostate cancer cell lines DU145 (ATCC HTB-81) and PC3 (ATCC CRL-1435) and prostate normal epithelial cells PNT2 (ECACC 95012613). Melanoma cell lines A375 (ATCC CRL-1619) and HTB140 (ATCC Hs 294T) together with human keratinocytes HaCaT (obtained as a kind gift of Prof. Marta Michalik, Department of Cell Biology, Jagiellonian University) were included in the skin panel. Two colon cancer cell lines, namely Caco-2 (ATCC HTB-37) and HT29 (ATCC HTB-38), constituted the gastrointestinal panel. […]
The examined compound (3) was diluted in the culture media from freshly made stock solution in MeOH (10 mg/mL) to the working concentrations (from 0 to 50 μg/mL). Cell viability was determined as described previously. […] Then, the culture medium was replaced with the medium containing different concentrations of the assessed compound (1–50 μg/mL). After 24 h of incubation, the viability of the cells was determined using colorimetric lactate dehydrogenase (LDH) assay in comparison to the controls to which corresponding aliquots of MeOH diluted with culture media were added. […] LDH released from the damaged cells into the cell culture medium was quantified by measuring the absorbance at 490 nm using a Synergy II Biotek microplate reader. […]

SAOS-2 = test: MTT viability test, osteosarcoma cells with p53 deletion; conditions: Homo sapiens
Experimental: (§6) Two osteosarcoma cell lines: U-2 OS (with wild-type p53 status) and SAOS-2 (p53 null cell line) were used to evaluate cytotoxic activity of 1 and 2. Doxorubicin was employed as a reference drug. Viability of the cells treated by 1 or 2 (concentration range 0.014–50.0 µM) for 24 and 48 h was assessed by thiazolyl blue tetrazolium bromide (MTT) test.
(§7) Human osteosarcoma cell lines U-2 OS (ATCC HTB-96; wild-type p53 status) and SAOS-2 (ATCC HTB-85; p53 deletion) were cultured in McCoy’s 5A medium containing L-glutamine and supplemented with 10% FBS at 37 °C and in a humidified atmosphere with 5% CO2. […] After that, working solutions were diluted with culture media to the final 1× concentrations (0.014–50 μM).
(§8) For the MTT assay, the osteosarcoma cells suspended in the nutrient medium were seeded into 96-well microtiter plates (density 1.0 × 10^4 per well) and preincubated for 24 h (37 °C, 5% CO2). Subsequently, the cells were treated with 1 or 2 at different concentrations (0.014–50 μM) and further cultivated for another 24 or 48 h. After that, MTT was added for 1 h at the final concentration of 500 ng/mL. The culture medium was removed and the formazan crystals were dissolved in isopropanol containing 40 mM HCl. Absorbance was measured using Tecan microplate reader at 570 nm with the reference wavelength of 650 nm. […] Data were analyzed using Origin software.

U-2 OS = test: MTT viability test, osteosarcoma cells with wild-type p53 status; conditions: Homo sapiens, U2OS
Experimental: as §6, §7, §8

[2] = system: human polymorphonuclear leukocytes (PMNs); test: Cytotoxicity to neutrophils, propidium iodide staining and flow cytometry; assay type: cell-based; conditions: at 2.5 µM or lower concentrations, 24 h incubation
Experimental: Cytotoxicity of 1 and 2 to human polymorphonuclear leukocytes (PMNs) was evaluated using propidium iodide (PI) staining and flow cytometry (FACS) analysis. The compounds were nontoxic in PMNs at 2.5 µM or lower concentrations (Figure 4).
Cytotoxicity was assessed by a standard flow cytometric probe using propidium iodide (PI) staining. After 24 h of incubation in the absence or presence of the tested germacranolide (at concentrations of 0.5, 1.0, 2.5 and 5.0 μM), the neutrophils (3.5 × 10^5) were harvested and centrifuged (1500 r.p.m., 10 min, 4 °C), washed once with cold PBS and resuspended in 400 μL of PBS. A 5 μL aliquot of PI solution (50 μg/mL) was added to the cell suspension. After 15 min of incubation with PI at room temperature, cells were analyzed by BD FACSCalibur flow cytometer (BD Biosciences, San Jose, CA, USA), and 10,000 events were recorded per sample.

[3] = system: ROS release from f-MLP-stimulated human neutrophils; test: ROS production, luminol-dependent chemiluminescence; assay type: cell-based; conditions: f-MLP stimulation, concentration range 1–2.5 μM
Experimental: Activation of PMNs, either at a site of inflammation or induced in vitro by proinflammatory agents, results in an oxidative burst in these cells. The phenomenon is characterized by intense ROS generation and liberation of proteolytic enzymes from azurophilic granules. An effect of the sesquiterpene lactones 1 and 2 on ROS production in PMNs was assessed in response to N-formyl-Met-Leu-Phe (f-MLP) stimulation.
ROS production was measured using luminol-dependent chemiluminescence test. A 70 μL aliquot of neutrophil suspension (3.5 × 10^5) in (Ca^2+)-free HBSS buffer, 50 μL of the tested compound solution and 50 μL of luminol (100 μM) were added to a well in a 96-well plate. ROS production was initiated by the addition of f-MLP (30 μL of 0.1 μg/mL solution) to obtain a total volume of 200 μL per well. Chemiluminescence changes were measured for 40 min, at 2 min intervals, in a microplate reader (37 °C). The background chemiluminescence produced by nonstimulated cells was also determined. The percentage of inhibition was calculated by comparison to the stimulated control without the tested compound, at the maximum luminescence.

[4] = system: IL-1β secretion by LPS-stimulated human neutrophils; test: IL-1β release, ELISA; assay type: cell-based; conditions: 0.5, 1.0 and 2.5 µM, 24 h after LPS stimulation
Experimental: (§4) In response to stimulation with proinflammatory agents, e.g., LPS or f-MLP, human neutrophils excrete an array of cytokines and chemokines, including TNF-α, IL-1β, IL-8 and CCL2 [29, 30]. In the present study, neutrophils were pretreated with the examined compounds (1 or 2) before their priming with LPS. Levels of IL-1β, IL-8, TNF-α and CCL2 were determined in the culture medium, using ELISA, 24 h after LPS stimulation.
(§5) Neutrophils (2 × 10^6) were cultured in 24-well plates in RPMI 1640 medium with 10% FBS, 10 mM HEPES and 2 mM L-glutamine, in the presence or absence of LPS (100 ng/mL) and in the absence or presence of 1 or 2 (final concentrations of the examined germacranolide in a range of 0.5–2.5 μM), at 37 °C with 5% CO2. The neutrophils were harvested after 24 h and centrifuged (2000 r.p.m., 10 min, 4 °C). The amount of released cytokines was measured by enzyme-linked immunosorbent assay (ELISA) following the manufacturer’s instructions (BD Biosciences, USA). The effects on IL-8, IL-1β, CCL2 and TNF-α production by the neutrophils were calculated by comparing the percentages of the released agents to the stimulated control without the tested compound.

[5] = system: IL-8 secretion by LPS-stimulated human neutrophils; test: IL-8 release, ELISA; assay type: cell-based; conditions: 0.5, 1.0 and 2.5 µM, 24 h after LPS stimulation
Experimental: as §4, §5

[6] = system: TNF-α secretion by LPS-stimulated human neutrophils; test: TNF-α release, ELISA; assay type: cell-based
Experimental: as §4, §5

[7] = system: CCL2 secretion by LPS-stimulated human neutrophils; test: CCL2 release, ELISA; assay type: cell-based; conditions: 0.5, 1.0 and 2.5 µM, 24 h after LPS stimulation
Experimental: as §4, §5

MCF-7 cell line = system: MCF-7 cell line; design: method as in PMID 30127485; conditions: cited from earlier work
PC3 cells = system: PC3 cells; design: method as in PMID 33968193; conditions: cited from earlier work
HepG2 cells = system: HepG2 cells; design: method as in PMID 35520265; conditions: cited from earlier work
cancer cells = system: cancer cells; design: method as in PMID 30127485, PMID 22908556; conditions: cancer cells in vitro; cited from earlier work
NF-κB = conditions: cited from earlier work

## COc1cccc2c1C(=O)c1c(O)c3c(c(O)c1C2=O)C[C@@](O)(C(=O)CO)C[C@@H]3O[C@H]1C[C@H](N)[C@H](O)[C@H](C)O1 [Doxorubicin, reference compound]
PC3
  IC50: > 50 µg/mL
HaCaT
  IC50: > 4.68 µg/mL
A375
  IC50: 0.59 ± 0.04 µg/mL
HTB140
  IC50: > 5.71 µg/mL
[1]
  IC50: 1.1 to 10.5 µM
SAOS-2; SAOS-2, 24 h
  IC50: 4.36 µM
SAOS-2; SAOS-2, 48 h
  IC50: 0.08 µM
U-2 OS; 24 h
  IC50: 1.87 µM
U-2 OS; 48 h
  IC50: 0.17 µM

## C=C1C(=O)O[C@H]2[C@H]1[C@@H](O)[C@H](OC(=O)C(C)CC)[C@H](C)CCC(=O)[C@](C)(O)[C@@H]2OC(=O)/C(C)=C\C (stereo partly drawn) [Compound 1, 4β,8α-dihydroxy-5β-angeloyloxy-9β-(2-methylbutyryloxy)-3-oxo-germacran-6α,12-olide]
[2]
  Cytotoxicity to PMNs (propidium iodide staining): nontoxic
[3]
  ROS generation: significantly and dose-dependently reduced ROS generation
[4]
  IL-1β production upon LPS stimulation: significant and dose-dependent inhibition
[5]
  IL-8 production upon LPS stimulation: significant and dose-dependent inhibition
[6]; lowest concentration (0.5 μM)
  TNF-α secretion: could not be achieved
[6]; only in the two higher concentrations (1.0 and 2.5 μM), 24 h after LPS stimulation
  TNF-α release: statistically significant reduction
[7]
  CCL2 production upon LPS stimulation: significant and dose-dependent inhibition
MCF-7 cell line
  Cytotoxicity: resistant
SAOS-2; SAOS-2, 24 h
  IC50: 9.11 µM
SAOS-2; SAOS-2, 48 h
  IC50: 6.76 µM
U-2 OS; 24 h
  IC50: 7.77 µM
U-2 OS; 48 h
  IC50: 5.1 µM

## C=C1C(=O)O[C@H]2[C@H]1[C@@H](OC(=O)C(C)C)C(=O)[C@H](C)CCC[C@](C)(O)[C@@H]2OC(=O)C(C)C [incaspitolide A, Incaspitolide A]
PC3 cells
  Apoptosis induction: appeared to induce apoptosis

## C=C1C(=O)O[C@H]2[C@H]1[C@@H](O)[C@H](OC(=O)CC(C)C)[C@H](C)CCC(=O)[C@](C)(O)[C@@H]2OC(=O)/C(C)=C\C [Compound 2, 4β,8α-dihydroxy-5β-angeloyloxy-9β-(3-methylbutyryloxy)-3-oxo-germacran-6α,12-olide]
[2]
  Cytotoxicity to PMNs (propidium iodide staining): nontoxic
[3]
  ROS generation: significantly and dose-dependently reduced ROS generation
[4]
  IL-1β production upon LPS stimulation: significant and dose-dependent inhibition
[5]
  IL-8 production upon LPS stimulation: significant and dose-dependent inhibition
[7]
  CCL2 production upon LPS stimulation: significant and dose-dependent inhibition
SAOS-2; SAOS-2, 24 h
  IC50: 5.21 µM
SAOS-2; SAOS-2, 48 h
  IC50: 3.57 µM
U-2 OS; 24 h
  IC50: 3.18 µM
U-2 OS; 48 h
  IC50: 2.52 µM

## Cardivarolide H
HepG2 cells
  Apoptosis induction: appeared to induce apoptosis

## 2α,5-epoxy-5,10-dihydroxy- 6α-angeloyloxy-9β-(3-methylbutyryloxy)-germacran-8α,12-olide
Cancer cells
  IC50: > 7.6 µM
NF-κB; concentration range 1–10 μM
  NF-κB inhibitory effect: NF-κB inhibitory effect was shown

## 2β,5-epoxy-5,10-dihydroxy-6α-angeloyloxy-9β-isobutyryloxy-germacran-8α,12-olide
Cancer cells
  IC50: > 7.9 µM
NF-κB; concentration of 10 μM
  NF-κB inhibitory effect: NF-κB inhibitory effect was shown
